From PubChem BioAssay (NCI)
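These data come from cells grown in 96-well plates and exposed to compound for 48 hours at five concentrations. Definition used: TGI = concentration required for complete inhibition of growth.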

Key:
Assay in all cases: NCI-60 cell line screen, 48 h
[1] = tested on: A549 NSCLC
[2] = tested on: ACHN renal
[3] = tested on: COLO 205 colon
[4] = tested on: HCT-116 colon
[5] = tested on: HL-60(TB) leukemia
[6] = tested on: HOP-92 NSCLC
[7] = tested on: IGROV1 ovarian
[8] = tested on: NCI-H23 lung
[9] = tested on: OVCAR-4 ovarian
[10] = tested on: OVCAR-5 ovarian
[11] = tested on: SF-539 CNS
[12] = tested on: SK-MEL-5 melanoma
[13] = tested on: SK-OV-3 ovarian
[14] = tested on: SN12C renal
[15] = tested on: SW-620 colon
[16] = tested on: U251 CNS
[17] = tested on: UACC-257 melanoma
[18] = tested on: UACC-62 melanoma
[19] = tested on: UO-31 renal
[20] = tested on: SK-MEL-2 melanoma

| Structure (SMILES) | TGI [1] | TGI [2] | TGI [3] | TGI [4] | TGI [5] | TGI [6] | TGI [7] | TGI [8] | TGI [9] | TGI [10] | TGI [11] | TGI [12] | TGI [13] | TGI [14] | TGI [15] | TGI [16] | TGI [17] | TGI [18] | TGI [19] | TGI [20] |
| --- | --- | --- | --- | --- | --- | --- | --- | --- | --- | --- | --- | --- | --- | --- | --- | --- | --- | --- | --- | --- |
| COC1/C=C/C(C)C(O)CC(O)/C=C/C(C)C(C(C)C(OC)C(C)CCC(=O)C(C)C(C/C=C/N(C)C=O)OC)OC(=O)/C=C/C=C(\C)CC(OC)CC2=CC(=O)O[C@@H](C(C)C(OC)C1)[C@H]2O (stereo partly specified) | 0.235 µM | 0.13 µM | 0.0885 µM | 0.00952 µM | 0.252 µM | 0.0106 µM | 0.0689 µM | 0.0437 µM | 1.54 µM | 0.228 µM | 0.0172 µM | < 0.005 µM | 0.108 µM | 1.78 µM | 0.267 µM | 0.102 µM | 0.169 µM | 0.019 µM | 0.0648 µM |  |
| COc1nc(Cl)nc(N[C@H](C)c2c3ccccc3cc3ccccc23)n1 | 96.2 µM | 31.7 µM | 28.1 µM | 24.8 µM | 58.8 µM | 46.4 µM | 20.5 µM | 31.8 µM | 13.7 µM | 31.1 µM | 33.8 µM | 19.5 µM | 29.3 µM | 17.8 µM | 28.8 µM | 31.9 µM | 30.2 µM | 13.8 µM | 31.8 µM | 31.6 µM |
| CCOc1ccc2nc(NC(=O)C(=O)C(C(=O)c3ccccc3F)C3OC(=O)c4ccccc43)sc2c1 (stereo unspecified) | 76.4 µM | > 100 µM | 30.4 µM | 31.8 µM | 50.1 µM |  | 83.2 µM |  | 77.6 µM |  | 52.4 µM | 33.8 µM | 55.1 µM | 54.1 µM | 37.5 µM | 23.8 µM | > 100 µM | 27.7 µM | 33.6 µM | 39.1 µM |
| COc1ccccc1NC(=O)C(=O)C(C(=O)c1ccccc1F)C1OC(=O)c2ccccc21 (stereo unspecified) | > 100 µM | > 100 µM | 43.6 µM | 44.3 µM | 56.5 µM | > 100 µM | > 100 µM | 57.6 µM | > 100 µM | > 100 µM | 66.1 µM | > 100 µM | 99.7 µM | 87.2 µM | > 100 µM | 31.1 µM | > 100 µM | 34.9 µM | 98.7 µM | > 100 µM |
